According to PubChem BioAssay (NCI):
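1) Cells in 96-well plates. 2) Compound, 48 h, 5 concentrations. 3) Linear interpolation between surrounding doses. 4) Unreached endpoint = highest concentration. Here, GI50 denotes the concentration required for 50% inhibition of growth. TGI is the concentration that stops growth completely.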

Tests used:
Assay in all cases: NCI anticancer screen, dose series, 48 h
[1] = test system: 786-0 renal
[2] = test system: A498 renal
[3] = test system: A549 NSCLC
[4] = test system: ACHN renal
[5] = test system: BT-549 breast
[6] = test system: CAKI-1 renal
[7] = test system: CCRF-CEM leukemia
[8] = test system: COLO 205 colon
[9] = test system: DU-145 prostate
[10] = test system: EKVX NSCLC
[11] = test system: HCC-2998 colon
[12] = test system: HCT-116 colon
[13] = test system: HCT-15 colon
[14] = test system: HL-60(TB) leukemia
[15] = test system: HOP-62 NSCLC
[16] = test system: HOP-92 NSCLC
[17] = test system: HS 578T breast
[18] = test system: HT29 colon
[19] = test system: IGROV1 ovarian
[20] = test system: K-562 leukemia
[21] = test system: KM12 colon
[22] = test system: LOX IMVI melanoma
[23] = test system: M14 melanoma
[24] = test system: MALME-3M melanoma
[25] = test system: MCF7 breast
[26] = test system: MDA-MB-231 breast
[27] = test system: MDA-MB-435
[28] = test system: MDA-MB-468 breast
[29] = test system: MOLT-4 leukemia
[30] = test system: NCI-H226 lung
[31] = test system: NCI-H23 lung
[32] = test system: NCI-H460 lung
[33] = test system: NCI-H522 lung
[34] = test system: NCI/ADR-RES ovarian
[35] = test system: OVCAR-3 ovarian
[36] = test system: OVCAR-4 ovarian
[37] = test system: OVCAR-5 ovarian
[38] = test system: OVCAR-8 ovarian
[39] = test system: PC-3 prostate
[40] = test system: RPMI-8226 leukemia
[41] = test system: RXF 393 renal
[42] = test system: SF-268 CNS
[43] = test system: SF-295 CNS
[44] = test system: SF-539 CNS
[45] = test system: SK-MEL-2 melanoma
[46] = test system: SK-MEL-28 melanoma
[47] = test system: SK-MEL-5 melanoma
[48] = test system: SK-OV-3 ovarian
[49] = test system: SN12C renal
[50] = test system: SNB-19 CNS
[51] = test system: SNB-75 CNS
[52] = test system: SW-620 colon
[53] = test system: T-47D breast
[54] = test system: TK-10 renal
[55] = test system: U251 CNS
[56] = test system: UACC-257 melanoma
[57] = test system: UACC-62 melanoma
[58] = test system: UO-31 renal

C=C1CC[C@@H]2[C@]3(C)COC(c4ccccc4)O[C@@H]3CC[C@@]2(C)[C@@H]1C/C=C1/C(=O)OCC1OC(C)=O (stereo partly specified)
GI50 [1]: 12.5 µM
TGI [1]: 25.4 µM
GI50 [2]: 19.9 µM
TGI [2]: 35.7 µM
GI50 [3]: 15.4 µM
TGI [3]: 32.3 µM
GI50 [4]: 8.95 µM
TGI [4]: 21 µM
GI50 [5]: 2.67 µM
TGI [5]: 10 µM
GI50 [6]: 12.2 µM
TGI [6]: 24.7 µM
GI50 [7]: 2.54 µM
TGI [7]: 10.9 µM
GI50 [8]: 17.5 µM
TGI [8]: 36.1 µM
GI50 [9]: 13.6 µM
TGI [9]: 27.2 µM
GI50 [10]: 10.7 µM
TGI [10]: 22.6 µM
GI50 [11]: 13.9 µM
TGI [11]: 26.9 µM
GI50 [12]: 2.25 µM
TGI [12]: 5.78 µM
GI50 [13]: 4.3 µM
TGI [13]: 16.3 µM
GI50 [14]: 7.37 µM
TGI [14]: 39.2 µM
GI50 [15]: 16 µM
TGI [15]: 31.2 µM
GI50 [16]: 10.4 µM
TGI [16]: 23.4 µM
GI50 [17]: 20.5 µM
TGI [17]: 67.4 µM
GI50 [18]: 3.63 µM
TGI [18]: 13.7 µM
GI50 [19]: 14.4 µM
TGI [19]: 27.8 µM
GI50 [20]: 3.72 µM
TGI [20]: > 100 µM
GI50 [21]: 10.6 µM
TGI [21]: 25.7 µM
GI50 [22]: 1.8 µM
TGI [22]: 3.61 µM
GI50 [23]: 7.44 µM
TGI [23]: 20.9 µM
GI50 [24]: 17.1 µM
TGI [24]: 33.1 µM
GI50 [25]: 3.34 µM
TGI [25]: 15.5 µM
GI50 [26]: 10.9 µM
TGI [26]: 23 µM
GI50 [27]: 10.4 µM
TGI [27]: 22.5 µM
GI50 [28]: 5.05 µM
TGI [28]: 19 µM
GI50 [29]: 4.43 µM
TGI [29]: 28.6 µM
GI50 [30]: 4.89 µM
TGI [30]: 23.1 µM
GI50 [31]: 15.1 µM
TGI [31]: 29.1 µM
GI50 [32]: 18.9 µM
TGI [32]: 51.8 µM
GI50 [33]: 10.2 µM
TGI [33]: 22.8 µM
GI50 [34]: 3.28 µM
TGI [34]: 11.1 µM
GI50 [35]: 2.74 µM
TGI [35]: 11.9 µM
GI50 [36]: 10.9 µM
TGI [36]: 25.2 µM
GI50 [37]: 13.4 µM
TGI [37]: 26.2 µM
GI50 [38]: 3.23 µM
TGI [38]: 12.3 µM
GI50 [39]: 5.4 µM
TGI [39]: 20.4 µM
GI50 [40]: 2.7 µM
TGI [40]: 7.85 µM
GI50 [41]: 4.13 µM
TGI [41]: 17 µM
GI50 [42]: 15.7 µM
TGI [42]: 34.3 µM
GI50 [43]: 13.3 µM
TGI [43]: 26.1 µM
GI50 [44]: 4.12 µM
TGI [44]: 14.8 µM
GI50 [45]: 11.1 µM
TGI [45]: 24.8 µM
GI50 [46]: 13.9 µM
TGI [46]: 26.9 µM
GI50 [47]: 12.2 µM
TGI [47]: 24.8 µM
GI50 [48]: 19.3 µM
TGI [48]: 34.4 µM
GI50 [49]: 5.64 µM
TGI [49]: 18.9 µM
GI50 [50]: 15.1 µM
TGI [50]: 28.4 µM
GI50 [51]: 1.77 µM
TGI [51]: 19.3 µM
GI50 [52]: 3.04 µM
TGI [52]: 10.3 µM
GI50 [53]: 10.6 µM
TGI [53]: 27 µM
GI50 [54]: 19 µM
TGI [54]: 33.4 µM
GI50 [55]: 10.4 µM
TGI [55]: 24.5 µM
GI50 [56]: 14.3 µM
TGI [56]: 28.7 µM
GI50 [57]: 7.28 µM
TGI [57]: 20.3 µM
GI50 [58]: 10.4 µM
TGI [58]: 22.1 µM
